Measured values as given in US20180228799A1, “Treatment for Neurological and Mental Disorders” (PSYCHOGENICS, INC., priority 2008, published 2018).

Test system: Male Wistar rats
Experiment: Novel Object Recognition Test (NOR)
Format: in vivo
Conditions: 0.3, 1, 3, and 10 mg/kg, 1 h prior to training, 24 hours post training, FIG. 3
Excerpt: In addition to working memory deficits, the initiative, “Measurement and Treatment Research to Improve Cognition in Schizophrenia” (MATRICS) has identified other domains of learning and memory in which schizophrenia patients show impaired visual learning and memory. There are several visual learning and memory tasks appropriate for study in rodents (Powell, S. B. and M. A. Geyer, Overview of animal models of schizophrenia. Curr Protoc Neurosci, 2007. Chapter 9: p. Unit 9 24). […]
Male Wistar rats were assessed for cognitive ability in a test apparatus comprising an open-field arena placed in a sound-attenuated room under dimmed lighting. […] All tests were video scored by an observer blind to treatment. […] Each rat was placed in the arena facing the same direction at the same position, and the time spent actively exploring the objects during a 10-minute test period was recorded. […] After 24 hours, each rat was placed again in the test arena for 10 minutes in the presence of one of the familiar objects and a novel object, and the time spent exploring both objects was recorded. […] The percent time spent exploring the novel object was recorded.

c1cc2c(c(N3CCNCC3)c1)OCCO2 [Eltoprazine, 1-(2,3-dihydro-1,4-benzodioxanyl-5-yl) piperazine]
Novel object recognition (NOR) memory vs. vehicle-treated controls: significantly improved
